{"source": "patent US9809583B2", "about": "(priority 2014, dated 2017)", "data": [{"biological_target": "androgen receptor (hAR) (Homo sapiens (Human), UniProt P10275)", "sequence (P10275 whole entry)": "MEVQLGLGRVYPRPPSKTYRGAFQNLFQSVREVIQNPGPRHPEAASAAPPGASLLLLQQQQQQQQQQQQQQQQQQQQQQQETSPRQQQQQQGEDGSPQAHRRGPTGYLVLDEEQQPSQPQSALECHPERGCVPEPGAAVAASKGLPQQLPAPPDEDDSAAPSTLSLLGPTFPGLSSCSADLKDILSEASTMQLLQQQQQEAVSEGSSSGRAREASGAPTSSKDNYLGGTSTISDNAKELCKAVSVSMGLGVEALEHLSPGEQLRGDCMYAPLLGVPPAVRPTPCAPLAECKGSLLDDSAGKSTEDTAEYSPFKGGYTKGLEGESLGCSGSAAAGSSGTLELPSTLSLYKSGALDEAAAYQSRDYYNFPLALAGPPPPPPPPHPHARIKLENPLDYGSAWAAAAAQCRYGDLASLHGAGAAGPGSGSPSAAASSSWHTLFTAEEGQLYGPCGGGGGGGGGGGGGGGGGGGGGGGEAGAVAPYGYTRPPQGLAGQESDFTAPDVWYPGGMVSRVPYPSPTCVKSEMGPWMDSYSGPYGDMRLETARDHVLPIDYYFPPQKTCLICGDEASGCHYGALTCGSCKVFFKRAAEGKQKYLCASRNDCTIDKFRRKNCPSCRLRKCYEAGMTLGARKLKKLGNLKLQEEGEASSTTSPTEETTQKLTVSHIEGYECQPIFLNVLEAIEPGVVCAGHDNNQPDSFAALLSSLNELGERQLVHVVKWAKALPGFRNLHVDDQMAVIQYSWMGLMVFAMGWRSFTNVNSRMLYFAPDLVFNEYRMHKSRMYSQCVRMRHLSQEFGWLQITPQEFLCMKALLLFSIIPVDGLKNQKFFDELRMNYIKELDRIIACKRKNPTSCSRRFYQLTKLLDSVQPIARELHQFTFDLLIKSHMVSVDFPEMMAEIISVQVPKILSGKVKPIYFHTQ", "assay": "Test of transcriptional activity (hAR / ARE-Luc dual-luciferase assay in CHO cells)", "assay_type": "cell-based", "conditions": "CHO cells with hAR and ARE-Luc, 24 hours; 10 nM DHT = 100%; read-out: EC50 [nM] (mean ± SE)", "experimental": "(§1) In order to examine the transcriptional activity of the agonists of the present invention, the following in-vitro experiment was performed. CHO (Chinese hamster ovary) cell line (ATCC, #CCL-61) was seeded in a 96-well plate at a density of 1.5×10^4 cells/well, and cultured for 24 hours. Then, a plasmid hAR and plasmid ARE-Luc-mixed medium was added thereto. The transfected cell line was treated with 0.1˜10,000 nM of SARM derivatives, and then allowed to react for 24 hours.", "units": {"EC50": "nM"}, "values": [{"molecule": "O=[N+]([O-])c1ccc(N2C[C@@H](COc3ccncc3)O[C@@H]2C(F)(F)F)cc1C(F)(F)F", "note": "[Example 66, (2R,5S)-3-(4-nitro-3-(trifluoromethyl)phenyl)-5-((pyridin-4-yloxy)methyl)-2-(trifluoromethyl)oxazolidine]", "EC50": 19.9}, {"molecule": "(2R,5S)-N-(4-cyanophenyl)-3-(3-methyl-4-nitrophenyl)-2-(trifluoromethyl)oxazolidine-5-carboxamide [Example 111]", "EC50": 4.46}, {"molecule": "(2R,5S)-N-(4-cyano-2-(trifluoromethyl)phenyl)-3-(4-cyano-3-(trifluoromethyl)phenyl)-2-(trifluoromethyl)oxazolidine-5-carboxamide [Example 128]", "EC50": 11.1}, {"molecule": "Cc1cc(N2C[C@@H](COc3ccc(/C=N/O)cc3)O[C@@H]2C(F)(F)F)ccc1[N+](=O)[O-]", "note": "[Example 70, (E)-4-(((2R,5S)-3-(3-methyl-4-nitrophenyl)-2-(trifluoromethyl)oxazolidin-5-yl)methoxy)benzaldehyde oxime]", "EC50": 0.62}, {"molecule": "Cc1cc(N2C[C@@H](COc3ccc(C#N)cc3)O[C@@H]2C(F)(F)F)ccc1[N+](=O)[O-]", "note": "[Example 53, 4-(((2R,5S)-3-(3-methyl-4-nitrophenyl)-2-(trifluoromethyl)oxazolidin-5-yl)methoxy)benzonitrile]", "EC50": "2.5 ± 0.7"}, {"molecule": "Cc1cc(N2C[C@@H](COc3ccc(C#N)cc3)O[C@H]2C(F)(F)F)ccc1[N+](=O)[O-]", "note": "[Example 82, 4-(((2S,5S)-3-(3-methyl-4-nitrophenyl)-2-(trifluoromethyl)oxazolidin-5-yl)methoxy)benzonitrile]", "EC50": 21.1}, {"molecule": "(2R,5S)-3-(3-chloro-4-nitrophenyl)-N-(pyridin-4-yl)-2-(trifluoromethyl)oxazolidine-5-carboxamide [Example 126]", "EC50": 1.21}, {"molecule": "(2R,5S)-N-(6-cyanopyridin-3-yl)-3-(3-methyl-4-nitrophenyl)-2-(trifluoromethyl)oxazolidine-5-carboxamide [Example 116]", "EC50": 4.32}, {"molecule": "N#Cc1ccc(OC[C@@H]2CN(c3ccc([N+](=O)[O-])c(C(F)(F)F)c3)[C@H](C(F)(F)F)O2)cc1", "note": "[Example 81, 4-(((2S,5S)-3-(4-nitro-3-(trifluoromethyl)phenyl)-2-(trifluoromethyl)oxazolidin-5-yl)methoxy)benzonitrile]", "EC50": 59.5}, {"molecule": "COC(=O)N1CCN(C(=O)[C@@H]2CN(c3ccc([N+](=O)[O-])c(C)c3)[C@@H](C(F)(F)F)O2)CC1", "note": "[Example 179, methyl 4-((2R,5S)-3-(3-methyl-4-nitrophenyl)-2-(trifluoromethyl)oxazolidine-5-carbonyl)piperazine-1-carboxylate]", "EC50": 42}, {"molecule": "N#Cc1ccc(OC[C@@H]2CN(c3ccc([N+](=O)[O-])c(C(F)(F)F)c3)[C@@H](C(F)(F)F)O2)cc1", "note": "[Example 64, 4-(((2R,5S)-3-(4-nitro-3-(trifluoromethyl)phenyl)-2-(trifluoromethyl)oxazolidin-5-yl)methoxy)benzonitrile]", "EC50": 34}, {"molecule": "(2R,5S)-3-(3-chloro-4-cyanophenyl)-N-(4-cyano-2-fluorophenyl)-2-(trifluoromethyl)oxazolidine-5-carboxamide [Example 119]", "EC50": 227}, {"molecule": "(2R,5S)-3-(3-chloro-4-cyanophenyl)-N-(4-cyanophenyl)-2-(trifluoromethyl)oxazolidine-5-carboxamide [Example 117]", "EC50": 2}]}, {"biological_target": "androgen receptor (hAR) (Homo sapiens (Human), UniProt P10275)", "assay": "Test of transcriptional activity (hAR / ARE-Luc dual-luciferase assay in CHO cells)", "assay_type": "cell-based", "conditions": "EC50 [nM] (mean ± SE), CHO cells with hAR and ARE-Luc, 24 hours; 10 nM DHT = 100%", "experimental": "as §1", "units": {"EC50": "nM"}, "values": [{"molecule": "N#Cc1ccc(OC[C@@H]2CN(c3ccc(C#N)c(C(F)(F)F)c3)[C@@H]([C@@H](O)C(F)(F)F)O2)cc1", "note": "[Example 48, 4-((2R,5S)-5-((4-cyanophenoxy)methyl)-2-((R)-2,2,2-trifluoro-1-hydroxyethyl)oxazolidin-3-yl)-2-(trifluoromethyl)benzonitrile]", "EC50": 1520}, {"molecule": "CC(C)(C)OC(=O)NCc1ccc(OC[C@@H]2CN(c3ccc(C#N)c(C(F)(F)F)c3)[C@@H](C(F)(F)F)O2)cc1", "note": "[Example 88]", "EC50": 926}, {"molecule": "N#Cc1ccc(N2C[C@@H](C(=O)Nc3ccc(F)c(F)c3)O[C@@H]2C(F)(F)F)cc1C(F)(F)F", "note": "[Example 140, (2R,5S)-3-(4-cyano-3-(trifluoromethyl)phenyl)-N-(3,4-difluorophenyl)-2-(trifluoromethyl)oxazolidine-5-carboxamide]", "EC50": 14.7}, {"molecule": "N#Cc1ccc(N2C[C@@H](COc3ccc(C(F)(F)F)cc3)O[C@@H]2C(F)(F)F)cc1C(F)(F)F", "note": "[Example 37, 2-(trifluoromethyl)-4-((2R,5S)-2-(trifluoromethyl)-5-((4-(trifluoromethyl)phenoxy)methyl)oxazolidin-3-yl)benzonitrile]", "EC50": 31.6}, {"molecule": "N#Cc1ccc(N2C[C@@H](COc3ccc(NC(=O)[C@@H]4CCCN4)cc3)O[C@@H]2C(F)(F)F)cc1C(F)(F)F", "note": "[Example 51, (S)-N-(4-(((2R,5S)-3-(4-cyano-3-(trifluoromethyl)phenyl)-2-(trifluoromethyl)oxazolidin-5-yl)methoxy)phenyl)pyrrolidine-2-carboxamide 2,2,2-trifluoroacetate]", "EC50": 165}, {"molecule": "COC(=O)Nc1ccc(NC(=O)[C@@H]2CN(c3ccc(C#N)c(C(F)(F)F)c3)[C@@H](C(F)(F)F)O2)c(Cl)c1", "note": "[Example 154, methyl(3-chloro-4-((2R,5S)-3-(4-cyano-3-(trifluoromethyl)phenyl)-2-(trifluoromethyl)oxazolidine-5-carboxamido)phenyl)carbamate]", "EC50": 27.8}, {"molecule": "N#Cc1ccc(N2C[C@@H](COc3ccncc3)O[C@@H]2C(F)(F)F)cc1C(F)(F)F", "note": "[Example 59, 4-((2R,5S)-5-((pyridin-4-yloxy)methyl)-2-(trifluoromethyl)oxazolidin-3-yl)-2-(trifluoromethyl)benzonitrile]", "EC50": 3.25}, {"molecule": "N#Cc1ccc(N2C[C@@H](COc3ccc(N)cc3)O[C@@H]2C(F)(F)F)cc1C(F)(F)F", "note": "[Example 14, 4-((2R,5S)-5-((4-aminophenoxy)methyl)-2-(trifluoromethyl)oxazolidin-3-yl)-2-(trifluoromethyl)benzonitrile]", "EC50": 111}, {"molecule": "N#Cc1cccc(NC(=O)[C@@H]2CN(c3ccc(C#N)c(C(F)(F)F)c3)[C@@H](C(F)(F)F)O2)c1", "note": "[Example 141, (2R,5S)-3-(4-cyano-3-(trifluoromethyl)phenyl)-N-(3-cyanophenyl)-2-(trifluoromethyl)oxazolidine-5-carboxamide]", "EC50": 44.2}, {"molecule": "N#Cc1ccc(N2C[C@@H](C(=O)Nc3ccnc(Cl)c3)O[C@@H]2C(F)(F)F)cc1C(F)(F)F", "note": "[Example 142, (2R,5S)-N-(2-chloropyridin-4-yl)-3-(4-cyano-3-(trifluoromethyl)phenyl)-2-(trifluoromethyl)oxazolidine-5-carboxamide]", "EC50": 0.79}, {"molecule": "N#Cc1ccc(N2C[C@@H](C(=O)Nc3ccc(N)cc3F)O[C@@H]2C(F)(F)F)cc1C(F)(F)F", "note": "[Example 105, (2R,5S)-N-(4-amino-2-fluorophenyl)-3-(4-cyano-3-(trifluoromethyl)phenyl)-2-(trifluoromethyl)oxazolidine-5-carboxamide]", "EC50": 49.9}, {"molecule": "CC(=O)N1CCN(C(=O)[C@@H]2CN(c3ccc(C#N)c(C(F)(F)F)c3)[C@@H](C(F)(F)F)O2)CC1", "note": "[Example 172, 4-((2R,5S)-5-(4-acetylpiperazine-1-carbonyl)-2-(trifluoromethyl)oxazolidin-3-yl)-2-(trifluoromethyl)benzonitrile]", "EC50": 699}, {"molecule": "CS(=O)(=O)Nc1ccc(OC[C@@H]2CN(c3ccc(C#N)c(C(F)(F)F)c3)[C@@H](C(F)(F)F)O2)cc1", "note": "[Example 39, N-(4-(((2R,5S)-3-(4-cyano-3-(trifluoromethyl)phenyl)-2-(trifluoromethyl)oxazolidin-5-yl)methoxy)phenyl)methanesulfonamide]", "EC50": 42.6}, {"molecule": "N#Cc1ccc(N2C[C@@H](C(=O)Nc3ccc([N+](=O)[O-])cc3Cl)O[C@@H]2C(F)(F)F)cc1C(F)(F)F", "note": "[Example 151, (2R,5S)-N-(2-chloro-4-nitrophenyl)-3-(4-cyano-3-(trifluoromethyl)phenyl)-2-(trifluoromethyl)oxazolidine-5-carboxamide]", "EC50": 43.7}, {"molecule": "N#Cc1ccc(OC[C@@H]2CN(c3ccc(C#N)c(C(F)(F)F)c3)[C@H](C(F)(F)F)O2)cn1", "note": "[Example 45, 5-(((2S,5S)-3-(4-cyano-3-(trifluoromethyl)phenyl)-2-(trifluoromethyl)oxazolidin-5-yl)methoxy)picolinonitrile]", "EC50": 44.1}, {"molecule": "N#Cc1ccc(OC[C@@H]2CN(c3ccc(C#N)c(C(F)(F)F)c3)[C@@H]([C@H](O)C(F)(F)F)O2)cc1", "note": "[Example 49, 4-((2R,5S)-5-((4-cyanophenoxy)methyl)-2-((S)-2,2,2-trifluoro-1-hydroxyethyl)oxazolidin-3-yl)-2-(trifluoromethyl)benzonitrile]", "EC50": 1700}, {"molecule": "N#Cc1ccc(NC(=O)[C@@H]2CN(c3ccc(C#N)c(C(F)(F)F)c3)[C@@H](C(F)(F)F)O2)cc1", "note": "[Example 138, (2R,5S)-3-(4-cyano-3-(trifluoromethyl)phenyl)-N-(4-cyanophenyl)-2-(trifluoromethyl)oxazolidine-5-carboxamide]", "EC50": 17.3}, {"molecule": "N#Cc1ccc(OC[C@@H]2CN(c3ccc(C#N)c(Cl)c3)[C@H](C(F)(F)F)O2)cc1", "note": "[Example 83, 2-chloro-4-((2S,5S)-5-((4-cyanophenoxy)methyl)-2-(trifluoromethyl)oxazolidin-3-yl)benzonitrile]", "EC50": 29.6}, {"molecule": "N#Cc1ccc(N2C[C@@H](C(=O)Nc3ccc(NC(=O)CO)cc3)O[C@@H]2C(F)(F)F)cc1C(F)(F)F", "note": "[Example 160, (2R,5S)-3-(4-cyano-3-(trifluoromethyl)phenyl)-N-(4-(2-hydroxyacetamido)phenyl)-2-(trifluoromethyl)oxazolidine-5-carboxamide]", "EC50": 105}, {"molecule": "N#Cc1ccc(N2C[C@@H](COc3ccc(N4CCCC4=O)cc3)O[C@@H]2C(F)(F)F)cc1C(F)(F)F", "note": "[Example 17, 4-((2R,5S)-5-((4-(2-oxopyrrolidin-1-yl)phenoxy)methyl)-2-(trifluoromethyl)oxazolidin-3-yl)-2-(trifluoromethyl)benzonitrile]", "EC50": 24}]}]}
